Experimental data taken from PMC2654417 (Combinatorial chemistry & high throughput screening, 2008).
Read-outs that look alike come from different tables or passages of the source. One block for each compound: values may come before it.

Experiments:
[1] = target: T1, glucocorticoid receptor (GR) (Homo sapiens, UniProt P04150); settings: GR-rich cell extract; cited from earlier work
T1 sequence (P04150 1-777): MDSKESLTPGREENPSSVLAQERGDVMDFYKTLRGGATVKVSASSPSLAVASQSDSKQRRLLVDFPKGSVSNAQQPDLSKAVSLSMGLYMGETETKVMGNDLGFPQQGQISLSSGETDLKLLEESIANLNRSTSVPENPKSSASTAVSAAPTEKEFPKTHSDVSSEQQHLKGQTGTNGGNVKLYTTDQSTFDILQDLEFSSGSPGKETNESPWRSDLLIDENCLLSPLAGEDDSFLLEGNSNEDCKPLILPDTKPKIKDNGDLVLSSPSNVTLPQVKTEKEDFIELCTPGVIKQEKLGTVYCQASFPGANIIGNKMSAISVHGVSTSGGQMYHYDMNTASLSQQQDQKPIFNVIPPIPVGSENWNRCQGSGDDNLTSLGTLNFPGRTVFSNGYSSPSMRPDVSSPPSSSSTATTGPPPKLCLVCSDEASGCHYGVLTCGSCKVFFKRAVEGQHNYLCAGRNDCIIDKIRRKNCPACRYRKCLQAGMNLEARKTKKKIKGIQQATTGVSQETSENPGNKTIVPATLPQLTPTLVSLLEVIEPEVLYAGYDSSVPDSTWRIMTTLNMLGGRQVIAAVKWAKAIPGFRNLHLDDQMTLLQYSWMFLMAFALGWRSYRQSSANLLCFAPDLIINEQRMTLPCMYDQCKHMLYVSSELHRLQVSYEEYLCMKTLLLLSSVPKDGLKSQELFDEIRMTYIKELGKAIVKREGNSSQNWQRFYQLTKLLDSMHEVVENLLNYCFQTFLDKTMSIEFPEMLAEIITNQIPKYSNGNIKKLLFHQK

[2] = target: T1, glucocorticoid receptor (GR); assay: GR-EFC nuclear translocation assay; assay type: cell-based; settings: for qHTS Hill Slope: Hill slope of the qHTS curve fit; for log qEC50: log10 of qEC50 in M, printed as negative values; for qHTS Max Activity: maximal activity of the qHTS curve, inactive threshold […] (3σ)
[3] = read-out: qEC50, qHTS curve fit, class 4 values are fit defaults
[4] = class 4 values are fit defaults

EC50 [2]: 0.036 µM
SMILES: C[C@]12C[C@H](O)[C@H]3[C@@H](CCC4=CC(=O)CC[C@@]43C)[C@@H]1CC[C@@H]2C(=O)CO [Corticosterone, reference compound]
IC50/Kd [3H]dex binding assay [1]: 0.048 [39] μM

EC50 ([2]; read-out: qEC50): > 9 µM
SMILES: C=C(C)[C@H]1CC[C@]2(C(=O)O)CC[C@]3(C)[C@@H](CC[C@H]4[C@@]5(C)CC[C@@H](O)C(C)(C)[C@@H]5CC[C@@]43C)[C@H]12 [NCGC00016449-01]
qHTS Curve Class [2]: 4 (inactive, where activity was below 28.6% (3σ for the present assay))

SMILES: C[C@@]12CC(=O)[C@H]3[C@@H](CCC4=CC(=O)CC[C@]43C)[C@H]1CCC2=O [NCGC00016440-01]
EC50 [2, 3]: > 9 µM

qHTS Hill Slope [2]: 0.63 | log qEC50 [2, 4]: −8.086 | qHTS Max Activity [2]: 84.0 | EC50 [2, 3]: 0.00821 µM
SMILES: CC(=O)[C@@]1(O)CC[C@H]2[C@@H]3C[C@H](C)C4=CC(=O)C=C[C@]4(C)[C@@]3(F)[C@@H](O)C[C@@]21C [NCGC00016442-01]

EC50 [2, 3]: > 9 µM
SMILES: COc1cc2c(cc1O)CC[C@@H]1[C@@H]2CC[C@@]2(C)[C@H](O)CC[C@H]12 [NCGC00015690-01]

EC50 [2, 3]: > 9 µM
SMILES: C[C@H](CCC(=O)O)[C@H]1CC[C@@H]2[C@H]3CC[C@H]4C[C@@H](O)CC[C@@]4(C)[C@H]3CC[C@]21C [NCGC00016445-01]

EC50 [2, 3]: > 9 µM
SMILES: C[C@@]12CC[C@@H]3c4ccc(O)cc4CC[C@H]3[C@H]1C[C@@H](O)[C@H]2O [NCGC00016217-01]

SMILES: C[C@H]1CC[C@@]2(NC1)O[C@@H]1C[C@H]3[C@@H]4CC=C5C[C@@H](O)CC[C@]5(C)[C@@H]4CC[C@]3(C)[C@@H]1[C@@H]2C [NCGC00016381-01]
EC50 [2, 3]: > 9 µM

SMILES: C[C@@]12CC[C@H]3[C@@H](CCC4=C(O)C(=O)CC[C@]43C)[C@H]1CCC2=O [NCGC00015070-01]
EC50 [2, 3]: > 9 µM

SMILES: C[C@]12Cc3cn4c(nc3C=C1CC[C@H]1[C@@H]2CC[C@@]2(C)[C@H]1CC[C@@]2(O)C#N)nc1ccccc14 [NCGC00016090-01]
qHTS Curve Class [2]: 4 (inactive, where activity was below 28.6% (3σ for the present assay)) | EC50 ([2]; read-out: qEC50): > 9 µM

qHTS Hill Slope [2]: 0.69 | log qEC50 [2, 4]: −7.725 | qHTS Max Activity [2]: 104.7 | EC50 [2, 3]: 0.0188 µM
SMILES: CC1(C)O[C@@H]2C[C@H]3[C@@H]4C[C@H](F)C5=CC(=O)CC[C@]5(C)[C@H]4[C@@H](O)C[C@]3(C)[C@]2(C(=O)CO)O1 [NCGC00016586-01]

qHTS Hill Slope [2]: 0.49 | log qEC50 [2, 4]: −7.254 | qHTS Max Activity [2]: 47.2 | EC50 [2, 3]: 0.0557 µM
SMILES: CC(=O)O[C@]1(C(C)=O)CC[C@H]2[C@@H]3C=C(C)C4=CC(=O)CC[C@]4(C)[C@H]3CC[C@@]21C [NCGC00016516-01]

EC50 [2, 3]: > 9 µM
SMILES: C[C@]12CC[C@@H]3c4ccc(O)cc4CC[C@H]3[C@@H]1CC[C@@H]2OC(=O)CCC1CCCC1 [NCGC00013034-01]

EC50 [2, 3]: > 9 µM
SMILES: COc1ccc2c(c1)CC[C@H]1[C@@H]2CC[C@@]2(C)[C@@H](NCCCCCCN3C(=O)C=CC3=O)CC[C@@H]12 [NCGC00025091-01]

SMILES: CCC[C@@H]1CC2=CC(=O)CC[C@]2(C)[C@@H]2CC[C@@]3(C)[C@H](CC[C@]3(O)CCC(=O)O)[C@H]12 [NCGC00025253-01]
EC50 [2, 3]: > 9 µM
